From PMC6435784, “Gut Microbiota-Based Pharmacokinetics and the Antidepressant Mechanism of Paeoniflorin” (Frontiers in Pharmacology, 2019)

Columns and labels:
carboxylesterase = experiment: Effect of BNPP inhibition on the transformation of paeoniflorin in intestinal culture system; assay type: cell-based, rat gut microbiota; settings: 24 h, 1 mg/mL paeoniflorin
Procedure: The colon contents of six rats were pooled, and 5 g of the sample was transferred to a ziplock bag and then mixed thoroughly with anaerobic medium (100 mL). After mixing completely, the cultures were stored at 37°C and preincubated for 1 h. Then, 10 μL of paeoniflorin (100 mg/mL) was added to fresh rat intestinal microbial culture (990 μL) under anaerobic conditions of N2, with a final concentration of 1 mg/mL of paeoniflorin in the culture system ([Hattori et al., 1988]). The inactivated bacteria solution was used as a negative control. Cultures were incubated at 37°C for 0, 2, 6, 12, and 24 h, respectively. After terminated the reaction with 3 volumes of acetonitrile, samples were vortexed for 30 s and then centrifuged at 16,162 g for 5 min. A total of 100 μL of the supernatant were transferred to a centrifuge tube, centrifuged at 16,162 g for 5 min and filtered through a 0.45 μm microporous membrane. Finally, 5 μL of the filtrate solution was collected for analysis.
Consistent with the above steps, the carboxylesterase inhibitor BNPP (0.1, 1, 3, and 10 mM) was added to the culture system at different concentrations with a final concentration of 1 mg/mL paeoniflorin. Then, the cultures were incubated at 37°C for 0, 2, 6, 12, and 24 h. The intestinal culture system without BNPP was used as a control group.

[1] = Excretion of paeoniflorin in rats (urine, feces, bile); assay type: in vivo, rat; settings: normal rats, paeoniflorin 20 mg/kg, excreted form = labelled substance, n = 6
[2] = as above; assay type: in vivo, rat; settings: normal rats, oral paeoniflorin 20 mg/kg, excreted form = labelled substance, n = 6
Procedure: Then, urine samples and feces samples were collected at 0, 6, 12, 24, 48, 72, and 96 h.

[3] = Pharmacokinetics of paeoniflorin in pseudo-germ-free (PGF) rats; assay type: in vivo; settings: SD, rat, in vivo, oral paeoniflorin 20 mg/kg, plasma analyte = labelled substance; for AUC(0-t) / Cmax: po, 20 mg/kg
Procedure: Chromatography separation was performed using an XSS T3 column (3.5 μm, 2.1 mm × 100 mm, Waters, Milford, MA, United States) with the column temperature maintained at 40°C at a flow rate of 0.4 mL/min. […] The gradient was as follows: 25% eluent B for 2 min; 25–85% B from 2 to 4 min; 85–25% B from 4 to 5 min and held at 25% from 5 to 7 min. The autosampler temperature was set to 4°C. Mass spectrometry was carried out using multiple reaction monitoring mode (MRM). […] The nebulizing gas flow rate was 2.8 L/min, the drying gas flow rate was 10 L/min, and the heating gas flow rate was 10 L/min. […] The remaining fourteen SD rats were orally administered saline equivalently. Two days after administration, pharmacokinetic experiments were performed. […] Plasma samples were immediately stored at 4°C until analysis. Statistical analyses were conducted using two-way ANOVA and Student’s t-test with GraphPad Prism Version 5 (GraphPad Software, La Jolla, CA, United States). The data are expressed as the means ± standard deviation. […] DAS 3.0 was used to calculate the plasma pharmacokinetic parameters.

[4] = Brain distribution of paeoniflorin and benzoic acid in rats; assay type: in vivo, rat; settings: at 2 h after oral administration of paeoniflorin 20 mg/kg
[5] = Pharmacokinetics of paeoniflorin in normal SD rats (plasma, LC-MS/MS); assay type: in vivo, rat; settings: normal rats, oral paeoniflorin 20 mg/kg, plasma analyte = labelled substance
Procedure: Chromatography separation was performed using an XSS T3 column (3.5 μm, 2.1 mm × 100 mm, Waters, Milford, MA, United States) with the column temperature maintained at 40°C at a flow rate of 0.4 mL/min. […] The gradient was as follows: 25% eluent B for 2 min; 25–85% B from 2 to 4 min; 85–25% B from 4 to 5 min and held at 25% from 5 to 7 min. The autosampler temperature was set to 4°C. Mass spectrometry was carried out using multiple reaction monitoring mode (MRM). […] The nebulizing gas flow rate was 2.8 L/min, the drying gas flow rate was 10 L/min, and the heating gas flow rate was 10 L/min. […] Plasma samples were immediately stored at 4°C until analysis. The method validation assays were carried out in terms of specificity, linearity, sensitivity, accuracy, precisions, recovery, matrix effect and stability. […] Statistical analyses were conducted using two-way ANOVA and Student’s t-test with GraphPad Prism Version 5 (GraphPad Software, La Jolla, CA, United States). The data are expressed as the means ± standard deviation. […] DAS 3.0 was used to calculate the plasma pharmacokinetic parameters.

depressed rats = experiment: Chronic unpredictable stress depression model, sucrose preference test; assay type: in vivo, rat; settings: 10 mg/kg, after 2 weeks of drug treatment, compared with model group, n = 8
Procedure: Forty rats were randomly divided into the following groups (n = 8): the normal control group, the model control group, the fluoxetine group (10 mg/kg), the paeoniflorin low-dose group (10 mg/kg), and the paeoniflorin high-dose group (20 mg/kg). Except for the blank control group, the groups were randomly exposed to two stressors, including behavioral constraints, ice water swimming, electric shock, cold stimulation, clip tail, wet bedding, light/dark reversed, shaking, foods and water deprivation, continuously for 8 weeks to establish a chronic unpredictable stress model. The sucrose preference test was performed at 0 and 14 days after administration.

[6] = PGF rats (antibiotic pretreated)

**Q.** With `O=[N+]([O-])c1ccc(OP(=O)(O)Oc2ccc([N+](=O)[O-])cc2)cc1` [BNPP, bis-p-nitrophenyl phosphate] as the molecule, how does the “inhibition rate of the conversion of paeoniflorin to benzoic acid” value (“inhibition rate” for short) (carboxylesterase; BNPP 0.1 mM) read?
**A.** Its value is 8.2%.

**Q.** And the “inhibition rate” value (carboxylesterase; BNPP 1 mM)?
**A.** The value was 46.8%.

**Q.** And the “inhibition rate” value (carboxylesterase; BNPP 3 mM)?
**A.** The value was 63.7%.

**Q.** What about the “inhibition rate” value (carboxylesterase; BNPP 10 mM) of the same molecule?
**A.** Its value is 74.9%.

**Q.** What does the source list for `O=C(O)c1ccccc1` [Benzoic acid, benzoic acid]?
**A.** cumulative excretion rate in bile for 60 h [1]: No benzoic acid was detected; 96-h cumulative excretion in feces [2]: 0.15%; 96-h cumulative excretion in urine [2]: 42.13%; AUC(0-t) ([3]; PGF rats (antibiotic pretreated), read-out: AUC (0-t)): 94.8 ± 19.8 ng·h/mL; Cmax ([3]; PGF rats (antibiotic pretreated), read-out: Cmax): 27.6 ± 2.63 ng/mL; AUC(0-t) ([3]; PGF rats, Figures 3B, 3C, read-out: AUC(0-t) (unit inferred)): 68.5 ng·h/mL; Cmax ([3]; PGF rats, Figures 3B, 3C, read-out: Cmax (unit inferred)): 25.4 ng/mL; AUC(0-inf) [3, 6]: 97.2 ± 20.2 ng·h/mL; Tmax [3, 6]: 35.8 ± 14.3 min; detection in SD rat brains [4]: considerable number; AUC(0-t) ([5]; SD, rat, in vivo, po, 20 mg/kg, Figures 2C, 3B, 3C, read-out: AUC(0-t) (unit inferred)): 151 ng·h/mL; Cmax ([5]; SD, rat, in vivo, po, 20 mg/kg, Figures 2C, 3B, 3C, read-out: Cmax (unit inferred)): 55.6 ng/mL; AUC(0-t) ([5]; SD, rat, in vivo, po, 20 mg/kg, n = 6, read-out: AUC (0-t)): 151 ng·h/mL; Cmax ([5]; SD, rat, in vivo, po, 20 mg/kg, n = 6, read-out: Cmax): 55.6 ± 12.1 ng/mL; Cmax ([5]; SD, rat, in vivo, po, 20 mg/kg, read-out: Cmax): 55.6 ng/mL; AUC(0-inf) ([5]; SD, rat, in vivo, n = 6): 162 ± 40.1 ng·h/mL; Tmax ([5]; SD, rat, in vivo, n = 6): 47.5 ± 11.3 min; AUC(0-t) ([5]; n = 6): 151.24 ± 29.59 ng·h/mL

**Q.** With `CNCCC(Oc1ccc(C(F)(F)F)cc1)c1ccccc1` (centres unmarked) [fluoxetine, reference compound] as the molecule, how does the sucrose preference value (depressed rats) read?
**A.** The sucrose preference value was “significantly higher than that of the model control group”.
